# In US12486251B2 (PHARMABLOCK SCIENCES (NANJING) , INC., priority 2020, dated 2025):
# Target: CBP recombinant proteins (Homo sapiens (Human), UniProt Q92793)
# Test: Competitive HTRF assay for affinity to CBP recombinant protein
# Assay type: binding
# Conditions: His-tagged CBP 5 nM, biotin-labeled ligand 50 nM, 1% DMSO
# Protocol: The affinity of the compounds synthesized in the present patert to the CBP recombinant proteins was determined by competitive HTRF method. His-tagged cyclic adenosine monophosphate response element binding protein (CREB-binding protein, CBP) was expressed in Escherichia coli system and further purified. CBP biotinylated ligands were all self-made. The BL21 star (DE3) competert cells transfected with His-tagged CBP protein genes at N-terminal were cultured at 37° C. for 16 h until the OD value was between 0.6 and 0.8, induced by 0.5 mM of IPTG and cultured overnight. The supernatant of cell lysate was purified by a Ni-ion affinity column and a Superdex75 molecular sieve column sequentially. The purity of resulting CBP proteins was 95%. The fluorescent donor reagent MAb Anti 6HIS—Eu cryptate Gold (Cisbio #61HI2KLA), the receptor reagent Streptavidin-XL665 (#610SAXLA) and the detection buffer (#62SDBRDD) required for HTRF were obtained from CISBIO BIOASSAYS (Codolet, France). Tris(2-carboxyethyl)phosphine hydrochloride (TCEP), sodium chloride, adenosine triphosphate (ATP), Tween-20, dimethylsulfoxide (DMSO), bovine serum albumin (BSA) and HEPES buffer were obtained from SIGMA at the highest level commercially available.
# The general procedure of the competitive HTRF assay for the affinity to CBP recombinant proteins is as follows: 0.05% Tween-20 and 1 mM of TCEP were added immediately before the assay, and the assay was performed in a buffer consisting of 0.1 mg/ml BSA, 50 mM of HEPES and 5 mM of NaCl of pH 7.5. 2.5 μL of compound solution in a determination buffer with 4% DMSO and 5 μL of CBP solution in a determination buffer were added to a white low-volume 384-well microtiter plate, incubated at room temperature for 20 min, and then incubated at room temperature for 40 min by adding 2.5 μL of biotin-labeled ligand solution to the determination buffer. The final concentrations of CBP, biotin-labeled ligand and DMSO were 5 nM, 50 nM and 1%, respectively. Then, 5 μL of MAb Anti 6HIS—Eu cryptate Gold and […] of Streptavidin-XL665 in detection buffers from the manufacturer were added to the mixture, and the mixture was incubated for another 60 min. The final concentration of Streptavidin-XL665 was 12.5 nM, and MAb Anti 6HIS—Eu cryptate Gold was diluted according to the final concentration provided by the supplier. The multimode reader Spark from TECAN (Mannedorf, Switzerland) was used to read the plate to detect the homogeneous time-resolved fluorescence intensity of two groups, in which the excitation wavelength was 320 nm and the emission wavelengths were 665 nm and 620 nm. The IC50 value of the inhibitor was obtained by fitting fluorescence intensity ratios at 665 nm/620 nm with respect to the inhibitor concentration in an S-shaped dose-response curve by using Prism 7 (La Jolla, 15 CA).
# CBP recombinant proteins, sequence (Q92793 whole entry): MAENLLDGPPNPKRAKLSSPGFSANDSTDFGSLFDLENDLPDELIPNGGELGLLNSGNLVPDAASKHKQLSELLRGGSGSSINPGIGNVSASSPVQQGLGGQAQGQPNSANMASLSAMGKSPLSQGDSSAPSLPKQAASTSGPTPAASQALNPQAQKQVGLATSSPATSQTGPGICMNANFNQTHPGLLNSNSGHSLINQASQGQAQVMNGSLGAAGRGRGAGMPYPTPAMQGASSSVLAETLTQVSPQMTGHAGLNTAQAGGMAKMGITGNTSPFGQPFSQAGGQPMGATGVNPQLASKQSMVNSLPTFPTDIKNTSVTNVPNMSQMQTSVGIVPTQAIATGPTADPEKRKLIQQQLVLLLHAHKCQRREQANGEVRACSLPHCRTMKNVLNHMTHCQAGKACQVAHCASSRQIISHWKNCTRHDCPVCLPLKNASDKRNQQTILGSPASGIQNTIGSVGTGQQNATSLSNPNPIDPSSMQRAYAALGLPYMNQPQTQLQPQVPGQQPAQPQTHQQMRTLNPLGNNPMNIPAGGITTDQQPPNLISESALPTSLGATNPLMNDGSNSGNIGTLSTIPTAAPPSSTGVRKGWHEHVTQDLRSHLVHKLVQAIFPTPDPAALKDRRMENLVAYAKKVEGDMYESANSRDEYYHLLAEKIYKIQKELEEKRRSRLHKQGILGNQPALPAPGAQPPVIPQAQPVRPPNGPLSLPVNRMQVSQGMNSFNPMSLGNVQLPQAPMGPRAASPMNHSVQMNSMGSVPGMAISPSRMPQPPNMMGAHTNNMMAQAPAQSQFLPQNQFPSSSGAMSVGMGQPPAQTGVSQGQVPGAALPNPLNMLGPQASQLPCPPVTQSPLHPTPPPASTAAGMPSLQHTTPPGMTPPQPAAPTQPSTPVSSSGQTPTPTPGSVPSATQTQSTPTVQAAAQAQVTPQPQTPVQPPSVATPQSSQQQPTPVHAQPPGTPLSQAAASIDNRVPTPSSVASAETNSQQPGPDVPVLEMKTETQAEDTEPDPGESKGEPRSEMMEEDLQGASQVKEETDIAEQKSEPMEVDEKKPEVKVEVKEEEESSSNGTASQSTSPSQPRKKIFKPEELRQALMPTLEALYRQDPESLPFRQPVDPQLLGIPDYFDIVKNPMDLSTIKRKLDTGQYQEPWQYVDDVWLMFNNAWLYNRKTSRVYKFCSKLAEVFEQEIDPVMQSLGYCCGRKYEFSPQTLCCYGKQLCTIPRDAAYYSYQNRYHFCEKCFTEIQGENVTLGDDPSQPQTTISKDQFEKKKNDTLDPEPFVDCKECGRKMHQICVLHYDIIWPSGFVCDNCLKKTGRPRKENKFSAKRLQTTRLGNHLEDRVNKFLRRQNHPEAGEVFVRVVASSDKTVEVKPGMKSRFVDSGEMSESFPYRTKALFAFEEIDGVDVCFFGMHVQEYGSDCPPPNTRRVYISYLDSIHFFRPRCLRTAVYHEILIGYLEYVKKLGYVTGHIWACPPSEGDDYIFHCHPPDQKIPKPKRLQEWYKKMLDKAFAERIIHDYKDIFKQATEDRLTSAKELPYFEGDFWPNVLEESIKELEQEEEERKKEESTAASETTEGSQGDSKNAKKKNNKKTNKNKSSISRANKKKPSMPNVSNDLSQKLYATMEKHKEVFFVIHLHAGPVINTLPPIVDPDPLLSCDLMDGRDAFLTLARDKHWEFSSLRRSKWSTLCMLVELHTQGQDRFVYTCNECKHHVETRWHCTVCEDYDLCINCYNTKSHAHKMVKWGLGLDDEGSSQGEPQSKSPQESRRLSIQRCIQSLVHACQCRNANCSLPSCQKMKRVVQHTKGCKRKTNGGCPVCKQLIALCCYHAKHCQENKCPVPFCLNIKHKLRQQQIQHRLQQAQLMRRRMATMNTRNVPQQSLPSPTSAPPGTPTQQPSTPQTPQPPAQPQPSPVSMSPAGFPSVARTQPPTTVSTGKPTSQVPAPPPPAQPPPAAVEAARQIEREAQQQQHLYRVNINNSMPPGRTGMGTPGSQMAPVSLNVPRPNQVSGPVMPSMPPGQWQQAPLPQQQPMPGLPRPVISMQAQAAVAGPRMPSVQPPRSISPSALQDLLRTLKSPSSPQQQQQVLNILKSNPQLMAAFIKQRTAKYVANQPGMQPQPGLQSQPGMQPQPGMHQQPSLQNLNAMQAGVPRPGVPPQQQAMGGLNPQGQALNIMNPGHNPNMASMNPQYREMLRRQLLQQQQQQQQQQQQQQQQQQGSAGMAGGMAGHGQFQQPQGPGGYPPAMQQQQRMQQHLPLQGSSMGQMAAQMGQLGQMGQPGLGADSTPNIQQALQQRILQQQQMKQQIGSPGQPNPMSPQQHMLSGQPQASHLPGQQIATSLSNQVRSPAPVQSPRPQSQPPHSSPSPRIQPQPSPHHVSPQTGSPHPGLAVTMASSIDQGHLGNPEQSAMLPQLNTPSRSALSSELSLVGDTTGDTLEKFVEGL
row,SMILES,IC50 [nM]
1,"CNC(=O)c1cc2cc(N3CCCS3(=O)=O)ccc2c(N2CCCc3cc(-c4cnn(C)c4)c(C(F)F)cc32)n1 [Example 26, 1-(7-(difluoromethyl)-6-(1-methyl-1H-pyrazol-4-yl)-3,4-dihydroquinolin-1(2H)-yl)-6-(1,1-dioxyisothiazolidin-2-yl)-N-methyliso-quinoline-3-carboxamide]",11
2,"CNC(=O)c1cc2cc(N3CCN(C)CC3=O)ccc2c(N2CCCc3cc(-c4cnn(C)c4)c(C(F)F)cc32)n1 [Example 27, 1-[7-difluoromethyl-6-(1-methyl-1H-pyrazol-4-yl)-3,4-dihydro-2H-quinolin-1-yl]-6-(4-methyl-2-oxo-piperazin-1-yl)-isoquinoline-3-carboxylic acid methylamide]",3.3
3,"CNC(=O)c1cc2cc(N3CCOCC3=O)ccc2c(N2CCCc3cc(-c4cnn(C)c4)c(C(F)F)cc32)n1 [Example 28, 1-[7-difluoromethyl-6-(1-methyl-1H-pyrazol-4-yl)-3,4-dihydro-2H-quinolin-1-yl]-6-(3-oxo-morpholin-4-yl)-isoquinoline-3-carboxylic acid methylamide]",5.3
4,"CNC(=O)c1cc2cc(C3CCCO3)ccc2c(N2CCCc3cc(-c4cnn(C)c4)c(C(F)F)cc32)n1 (stereo not shown) [Example 29, 1-[7-difluoromethyl-6-(1-methyl-1H-pyrazol-4-yl)-3,4-dihydro-2H-quinolin-1-yl]-6-(tetrahydrofuran-2-yl)-isoquinoline-3-carboxylic acid methylamide]",16
5,"CNC(=O)c1cc2ccccc2c(N2CCCc3cc(-c4cncnc4)c(C(F)F)cc32)n1 [Example 30, 1-(7-difluoromethyl-6-pyrimidine-5-yl-3,4-dihydro-2H-quinolin-1-yl)-isoquinoline-3-carboxylic acid methylamide]",22
6,"CNC(=O)c1cc2ccccc2c(N2CCCc3cc(C4=CCOCC4)c(C(F)F)cc32)n1 [Example 31, 1-[7-difluoro-methyl-6-(3,6-dihydro-2H-pyran-4-yl)-3,4-dihydro-2H-quino-lin-1-yl]-iso-quinoline-3-carboxylic acid methylamide]",49
7,"CCn1cc(-c2cc3c(cc2C(F)F)N(c2nc(C(=O)NC)cc4ccccc24)CCC3)cn1 [Example 32, 1-[7-difluoro-methyl-6-(1-ethyl-1H-pyrazol-4-yl)-3,4-dihydro-2H-quinolin-1-yl]-isoquino-line-3-carboxylic acid methylamide]",36
8,"CNC(=O)c1cc2ccccc2c(N2CCCc3cc(-c4cnn(C5CC5)c4)c(C(F)F)cc32)n1 [Example 33, 1-[6-(1-cyclo-propyl-1H-pyrazol-4-yl)-7-difluoromethyl-3,4-dihydro-2H-quino-lin-1-yl]-iso-quinoline-3-carboxylic acid methylamide]",44
9,"CNC(=O)c1cc2ccccc2c(N2CCCc3cc(-c4ccn(C)n4)c(C(F)F)cc32)n1 [Example 34, 1-[7-difluoro-methyl-6-(1-methyl-1H-pyrazol-3-yl)-3,4-dihydro-2H-quinolin-1-yl]-isoquinoline-3-carboxylic acid methylamide]",32
10,CNC(=O)c1cc2ccccc2c(N2CCCc3cc(C4=CCNCC4)c(C(F)F)cc32)n1 [Example 42],50
11,"CNC(=O)c1cc2cccnc2c(N2CCCc3cc(C4=CCN(C)CC4)c(C(F)F)cc32)n1 [Example 44, 8-[7-difluoromethyl-6-(1-methyl-1,2,3,6-tetrahydropyridin-4-yl)-3,4-dihydro-2H-quinolin-1-yl]-[1,7]naphthyridine-6-carboxylic acid methylamide]",64

# The next lines start with the values.
row,IC50 [nM],SMILES
1,16,CNC(=O)c1cc2ccccc2c(N2CCCc3cc(-c4cnn(CCO)c4)c(C(F)F)cc32)n1 [Example 35]
2,16,"CNC(=O)c1cc2cccnc2c(N2CCCc3cc(-c4cncnc4)c(C(F)F)cc32)n1 [Example 37, 8-(7-difluoro-methyl-6-pyrimidine-5-yl-3,4-dihydro-2H-quinolin-1-yl)-[1,7] naphthyridine-6-carboxylic acid methylamide]"
3,14,"CNC(=O)c1cc2cccnc2c(N2CCCc3cc(-c4cnn(CS(C)(=O)=O)c4)c(C(F)F)cc32)n1 [Example 38, 8-[7-difluoro-methyl-6-(1-methanesulfonyl-methyl-1H-pyrazol-4-yl)-3,4-dihydro-2H-quinolin-1-yl]-[1,7] naphthyridine-6-carboxylic acid methylamide]"
4,13,"CNC(=O)c1cc2cccnc2c(N2CCCc3cc(-c4ccnnc4)c(C(F)F)cc32)n1 [Example 39, 8-(7-difluoro-methyl-6-pyrida-zine-4-yl-3,4-dihydro-2H-quinolin-1-yl)-[1,7] naphthyridine-6-carboxylic acid methylamide]"
5,62,"CNC(=O)c1cc2ccccc2c(N2CCC(NC)c3cc(-c4cnn(C)c4)ccc32)n1 (stereo not shown) [Example 40, 1-[4-methylamino-6-(1-methyl-1H-pyrazol-4-yl)-3,4-dihydro-2H-quinolin-1-yl]-isoquinoline-3-carboxylic acid methylamide]"
6,57,"CNC(=O)c1cc2ccccc2c(N2CCC(O)c3cc(-c4cnn(C)c4)ccc32)n1 (stereo not shown) [Example 41, 1-[4-hydroxy-6-(1-methyl-1H-pyrazol-4-yl)-3,4-dihydro-2H-quinolin-1-yl]isoquinoline-3-carboxylic acid methylamide]"
7,6.7,"CNC(=O)c1cc2cccnc2c(N2CCCc3cc(C4=CCN(C(C)=O)CC4)c(C(F)F)cc32)n1 [Example 43, 8-[6-(1-acetyl-1,2,3,6-tetrahydropyridin-4-yl)-7-difluoromethyl-3,4-dihydro-2H-quinolin-1-yl]-[1,7]naphthyridine-6-carboxylic acid methylamide]"
8,8.5,"CNC(=O)c1cc2cccnc2c(N2CCCc3cc(C4=CCN(S(C)(=O)=O)CC4)c(C(F)F)cc32)n1 [Example 45, 8-[7-difluoromethyl-6-(1-methanesulfonyl-1,2,3,6-tetrahydropyridin-4-yl)-3,4-dihydro-2H-quinolin-1-yl]-[1,7]naphthyridine-6-carboxylic acid methylamide]"
9,5.4,"CNC(=O)c1cc2cccnc2c(N2CCCc3cc(C4CCN(C(C)=O)CC4)c(C(F)F)cc32)n1 [Example 46, 8-[6-(1-acetylpiperidin-4-yl)-7-difluoromethyl-3,4-dihydro-2H-quinolin-1-yl]-[1,7]naphthyridine-6-carboxylic acid methylamide]"
10,31,"CNC(=O)c1cc2ncccc2c(N2CCCc3cc(C4CCN(C(C)=O)CC4)c(C(F)F)cc32)n1 [Example 47, 5-[6-(1-acetylpiperidin-4-yl)-7-difluoro-methyl-3,4-dihydro-2H-quinolin-1-yl]-[1,6] naphthyridine-7-carboxylic acid methylamide]"
11,13,"CNC(=O)c1cc2cnccc2c(N2CCCc3cc(C4CCN(C(C)=O)CC4)c(C(F)F)cc32)n1 [Example 48, 1-[6-(1-acetylpiperidin-4-yl)-7-difluoro-methyl-3,4-dihydro-2H-quinolin-1-yl]-[2,6] naphthyridine-3-carboxylic acid methylamide]"
12,12,"CNC(=O)c1cc2ccncc2c(N2CCCc3cc(C4CCN(C(C)=O)CC4)c(C(F)F)cc32)n1 [Example 49, 1-[6-(1-acetylpiperidin-4-yl)-7-difluoro-methyl-3,4-dihydro-2H-quinolin-1-yl]-[2,7] naphthyridine-3-carboxylic acid methylamide]"
13,54,"CNC(=O)c1cc2cc(Cl)cnc2c(N2CCCc3cc(C4CCN(C(C)=O)CC4)c(C(F)F)cc32)n1 [Example 50, 8-[6-(1-acetylpiperidin-4-yl)-7-difluoro-methyl-3,4-dihydro-2H-quinolin-1-yl]-3-chloro-[1,7] naphthyridine-6-carboxylic acid methylamide]"
14,22,"CNC(=O)c1cc2cc(OC)cnc2c(N2CCCc3cc(C4CCN(C(C)=O)CC4)c(C(F)F)cc32)n1 [Example 51, 8-[6-(1-acetylpiperidin-4-yl)-7-difluoro-methyl-3,4-dihydro-2H-quinolin-1-yl]-3-methoxy-[1,7] naphthyridine-6-carboxylic acid methylamide]"
